Results from ChEMBL document CHEMBL1135610, “Aza-peptide epoxides: a new class of inhibitors selective for clan CD cysteine proteases” (J Med Chem, 2002).
Activity calls are given as the source filed them. No cut-off for these calls is given here.

Columns and labels:
Legumain (Sus scrofa) [1] = test: Inhibitory activity against legumain; No inhibition
Papain (Carica papaya) [2] = molecular target: T1, Papain (Carica papaya) (UniProt P00784); test: Inhibitory activity against papain; No inhibition
T1 sequence (whole entry): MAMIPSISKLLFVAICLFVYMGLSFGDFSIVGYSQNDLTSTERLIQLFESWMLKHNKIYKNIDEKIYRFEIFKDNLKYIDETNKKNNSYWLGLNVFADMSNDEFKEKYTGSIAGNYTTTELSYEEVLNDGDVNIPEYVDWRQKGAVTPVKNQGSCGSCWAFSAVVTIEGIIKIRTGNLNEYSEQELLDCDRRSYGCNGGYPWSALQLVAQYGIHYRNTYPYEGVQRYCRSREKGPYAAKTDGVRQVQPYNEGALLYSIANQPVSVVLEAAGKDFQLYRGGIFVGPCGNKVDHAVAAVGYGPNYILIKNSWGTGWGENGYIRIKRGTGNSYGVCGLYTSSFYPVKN

[3] = molecular target: Cathepsin B (Homo sapiens) (UniProt P07858); test: Inhibitory activity against Cathepsin B; No inhibition
Caspase-8 (Homo sapiens) = Caspase-8 (Homo sapiens) (UniProt Q14790); test: Inhibitory activity against Caspase-8
Chain of Caspase-8 (Homo sapiens) (Q14790 217-374 limits assumed): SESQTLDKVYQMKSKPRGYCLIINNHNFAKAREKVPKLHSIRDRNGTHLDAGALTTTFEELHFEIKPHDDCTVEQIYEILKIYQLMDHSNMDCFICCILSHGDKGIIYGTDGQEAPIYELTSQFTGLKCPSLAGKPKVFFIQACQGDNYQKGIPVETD
Chain of Caspase-8 (Homo sapiens) (Q14790 385-479 limits assumed): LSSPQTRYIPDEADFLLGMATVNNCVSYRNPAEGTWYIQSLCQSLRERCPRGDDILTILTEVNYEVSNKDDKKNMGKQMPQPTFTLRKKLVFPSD

Legumain (Sus scrofa) [4] = test: Inhibitory activity against legumain
Caspase-3 (Homo sapiens) = molecular target: T2, Caspase-3 (Homo sapiens) (UniProt P42574); test: Inhibitory activity against Caspase-3
T2 sequence (whole entry): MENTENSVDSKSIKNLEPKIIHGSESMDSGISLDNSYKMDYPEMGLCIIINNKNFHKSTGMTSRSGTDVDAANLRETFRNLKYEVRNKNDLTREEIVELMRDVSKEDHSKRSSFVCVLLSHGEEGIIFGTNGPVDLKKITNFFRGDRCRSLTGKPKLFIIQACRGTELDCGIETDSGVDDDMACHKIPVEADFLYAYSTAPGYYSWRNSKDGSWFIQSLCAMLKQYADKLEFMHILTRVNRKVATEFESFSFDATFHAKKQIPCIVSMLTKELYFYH

Caspase-6 (Homo sapiens) = molecular target: T3, Caspase-6 (Homo sapiens) (UniProt P55212); test: Inhibitory activity against Caspase-6
T3 sequence (whole entry): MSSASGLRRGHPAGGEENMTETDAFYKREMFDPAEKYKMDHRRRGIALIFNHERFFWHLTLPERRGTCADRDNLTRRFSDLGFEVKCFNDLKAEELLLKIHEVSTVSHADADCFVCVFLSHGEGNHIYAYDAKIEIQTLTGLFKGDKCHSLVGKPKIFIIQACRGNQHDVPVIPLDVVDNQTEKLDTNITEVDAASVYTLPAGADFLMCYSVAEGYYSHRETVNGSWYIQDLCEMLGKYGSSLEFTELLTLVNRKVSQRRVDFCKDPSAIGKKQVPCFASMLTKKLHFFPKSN

[5] = molecular target: Cathepsin B (Homo sapiens) (UniProt P07858); test: Inhibitory activity against Cathepsin B
Caspase-1 (Homo sapiens) = molecular target: T4, Caspase-1 (Homo sapiens) (UniProt P29466); test: Inhibitory activity against Caspase-1
T4 sequence (whole entry): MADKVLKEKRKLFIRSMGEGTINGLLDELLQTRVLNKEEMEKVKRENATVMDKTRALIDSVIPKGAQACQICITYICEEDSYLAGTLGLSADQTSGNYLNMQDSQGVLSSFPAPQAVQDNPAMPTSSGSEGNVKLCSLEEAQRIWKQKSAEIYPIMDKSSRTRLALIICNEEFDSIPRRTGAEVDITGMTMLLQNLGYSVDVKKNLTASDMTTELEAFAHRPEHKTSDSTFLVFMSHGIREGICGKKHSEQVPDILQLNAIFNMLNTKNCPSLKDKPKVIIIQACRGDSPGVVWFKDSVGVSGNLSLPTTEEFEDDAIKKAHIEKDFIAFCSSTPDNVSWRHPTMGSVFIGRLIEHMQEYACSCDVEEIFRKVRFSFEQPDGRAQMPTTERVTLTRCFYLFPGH

Papain (Carica papaya) [6] = molecular target: T1, Papain (Carica papaya); test: Inhibitory activity against papain.

| Structure (SMILES) | NI (Legumain (Sus scrofa) [1]) | k obs / 1 (Papain (Carica papaya) [2]) | NI [3] | k obs / 1 (Caspase-8 (Homo sapiens)) | k obs / 1 (Legumain (Sus scrofa) [4]) | k obs / 1 (Caspase-3 (Homo sapiens)) | k obs / 1 (Caspase-6 (Homo sapiens)) | k obs / 1 [5] | k obs / 1 (Caspase-1 (Homo sapiens)) | k obs / 1 (Papain (Carica papaya) [6]) | NI (Papain (Carica papaya) [2]) |
| --- | --- | --- | --- | --- | --- | --- | --- | --- | --- | --- | --- |
| CCOC(=O)C1OC1C(=O)N(CC(C)C)NC(=O)[C@@H](CC(C)C)NC(=O)[C@@H](CC(C)C)NC(=O)Cc1ccccc1 (stereo in doubt; 20) | inactive | 35 M⁻¹ s⁻¹ | inactive | – | – | – | – | – | – | – | – |
| CC(C)[C@H](NC(=O)CCc1ccccc1)C(=O)N[C@@H](C)C(=O)NN(CC(=O)O)C(=O)C1OC1C(=O)OCc1ccccc1 (stereo not given in full) | – | – | – | 63 M⁻¹ s⁻¹ | 21 M⁻¹ s⁻¹ | 58 M⁻¹ s⁻¹ | 52 M⁻¹ s⁻¹ | < 10 M⁻¹ s⁻¹ | 36200 M⁻¹ s⁻¹ | < 10 M⁻¹ s⁻¹ | – |
| CCOC(=O)C1OC1C(=O)N(CC(N)=O)NC(=O)[C@@H](C)NC(=O)[C@@H](C)NC(=O)Cc1ccccc1 (stereo in doubt; 17) | – | – | inactive | – | 142 M⁻¹ s⁻¹ | – | – | – | – | – | inactive |
| CC(C)[C@H](NC(=O)CCc1ccccc1)C(=O)N[C@@H](C)C(=O)NN(CC(=O)O)C(=O)C1OC1CCc1ccccc1 (stereo not given in full) | inactive | – | inactive | < 10 M⁻¹ s⁻¹ | – | < 10 M⁻¹ s⁻¹ | < 10 M⁻¹ s⁻¹ | – | 6130 M⁻¹ s⁻¹ | – | inactive |
